Patent US20240115676A1, “SILICIFIED TUMOR CELL COMPOSITIONS AND METHODS” (UNM Rainforest Innovations, priority 2020, published 2024)

Assays:
[1] = tested on: dendritic cells (CD11c^+); assay: In vitro activation of dendritic cells (CD40) by silicified tumor cells and doxorubicin-treated cancer cell supernatant; type: cell-based; conditions: supernatant from cancer cells treated with doxorubicin 5 ng/mL or 50 ng/mL, with vaccine
Procedure: Dendritic cells were seeded in 12-well plates at a density of 100,000 cells per well. After 24 hours, supernatant from cancer cells treated with doxorubicin (5 ng/mL or 50 ng/mL) was added, with or without 100,000 silicified tumor cells. Cells were labeled with fluorescent antibodies specific for CD40 and CD11c and analyzed using the Attune Flow Cytometer.

[2] = tested on: BR5-Akt-Luc2 tumors; assay: Cisplatin and vaccine combination therapy in late stage ovarian cancer model; type: in vivo, FVB mice; conditions: cisplatin 2 mg/kg intraperitoneally Day 9, vaccine Day 10 after tumor challenge
Procedure: Tumor-bearing or naïve female FVB mice were vaccinated intraperitoneally with irradiated (100 Gy at […], 15 mA, 48 Gy/min; or a Cs-137 gamma irradiator with a dose rate of 63 cGy/min) or silicified BR5-Akt (or BR5-Akt-Luc2 for vaccine viability analysis) cells (with TLR ligands as indicated) using doses of 3×10^4, 3×10^5, 3×10^6, or 3×10^7 Si-cells/mouse in 200 μl of PBS at the indicated schedules. Alternatively, mice were vaccinated subcutaneously (SC) with 3×10^6 Si-cells by scruffing the skin at the back of their neck and injecting an equivalent volume into the loose fold of skin. Mice that cleared all tumor cells based on IVIS Spectrum bioluminescent imaging were re-challenged with 2×10^5 BR5-Akt-Luc2 cancer cells at a later date, as indicated for each study. All control (no Tx) mice received sham PBS injections (200 μl/mouse). Single agent or combination therapy with cisplatin used IP administration of cis-diamineplatinum (II) dichloride (Sigma-Aldrich, St. Louis, MO) on Day 9 at 2 mg/kg in physiological saline.
For in vivo monitoring of tumor burden, mice with BR5-Akt-Luc2 tumors were administered 150 mg luciferin/kg by intraperitoneal injection, with a 10-minute delay before imaging. Mice were then anesthetized using 2.5% isoflurane, and 2D/3D bioluminescence images were acquired using an in vivo imaging system (XENOGEN IVIS SPECTRUM, PerkinElmer, Inc., Waltham, MA). […]

Compound: COc1cccc2c1C(=O)c1c(O)c3c(c(O)c1C2=O)C[C@@](O)(C(=O)CO)C[C@@H]3O[C@H]1C[C@H](N)[C@H](O)[C@H](C)O1 [doxorubicin]
- activation of dendritic cells (surface expression of CD40) [1]: enhanced vaccine-mediated activation of dendritic cells

Compound: N.N.[Cl][Pt][Cl] [Cisplatin, cis-diamineplatinum (II) dichloride]
- survival [2]: improved survival
- tumor burden (bioluminescence) [2]: reduced tumor burden in some mice
